Measured values as given in patent publication US8946292B2, “Formulations of low dose diclofenac and beta-cyclodextrin” (Javelin Pharmaceuticals, Inc., priority 2006, dated 2015).

Test system: moderate-to-severe post-surgical pain (post-surgical dental pain)
Test: Randomized, double-blind, single-dose, placebo- and comparator-controlled study of pain relief by administered dose (bolus IV)
Format: in vivo, human
Conditions: 30 mg single bolus IV dose (comparator)
Experimental: A 336-patient, seven treatment arm, randomized, double-blind, single-dose, and placebo- and comparator-controlled, parallel-group study was conducted. Patients were randomly assigned to receive a single dose of either diclofenac sodium solubilized with hydroxypropyl-beta-cyclodextrin (hereinafter “DIC”), ketorolac tromethamine, or placebo.
Bolus IV injectable 2 ml solutions were prepared by solubilizing diclofenac sodium with hydroxypropyl-beta-cyclodextrin. […]
Pain was assessed by each patient at Baseline (0 hour: Visual Analog Scale (VAS) and categorical pain intensity only), at 5, 15, 30 and 45 minutes, and at 1, 1.5, 2, 3, 4, 5, 6, 7, 8, 10, 12 and 24 hours after administration of study medication and immediately prior to the first dose of rescue medication. At each post-dose time period, levels of pain intensity (categorical and VAS) and pain relief (categorical and VAS) was assessed by each patient. […]
The presence of a dose-response was tested with a step-down testing procedure. Total pain relief (TOTPAR), peak pain relief, pain intensity difference (SPID), summed peak reduction in pain intensity difference (SPRID), and patient global evaluation was analyzed with analysis of variance (ANOVA) with treatment, center, and baseline categorical pain intensity as factors. […] A 95% confidence interval for each estimated median time to event was calculated. […]

## O=C(c1ccccc1)c1ccc2n1CCC2C(=O)O (centres unmarked) [ketorolac, ketorolac tromethamine]
  % Maximum Effect (TOTPAR): 100%
patients, 0-6 hours
  TOTPAR (Sum of Pain Relief VAS 0-100 mm ratings 0-6 hours): 400.3
